# Data: US20220110320A1, “ANTIMICROBIAL THIOURONIUM COPOLYMERS AND METHODS OF MAKING AND USING THE SAME” (priority 2020, published 2022)
# Assay: 1H-NMR stability (hydrolysis) of VBT monomer
# Type: physicochemical
# Conditions: 3 weeks
# Experimental: ^1H-NMR Studies. The VBT monomer (5 mg/mL) stability in D2O (with 0.5 μL DMSO as standard) and 0.5 M sodium acetate was analyzed using ^1H-NMR (Avance-600 MHz, Bruker). The VBT peak position and integration were monitored vs. time.
# The monomer was recrystallized before use to remove any deprotected thiols. The PVBT polymer was prepared using radical polymerization in TFE and was characterized using NMR spectroscopy. Because the thiouronium group is usually employed as a precursor to thiols, via base-induced hydrolysis, the stability of the VBT monomer under neutral and mildly basic conditions was assessed by recording ^1H-NMR spectra of VBT in D20 and in 0.5 M NaAc (pH≈9.2) for 3 weeks. […] In fact, hydrolysis is typically carried out at much higher pH.
compound,measurement,setting,value
C=Cc1ccc(CSC(=N)N)cc1.Cl [VBT],Hydrolysis of monomer by 1H-NMR,in 0.5 M NaAc (pH≈9.2),no signs of hydrolysis
same,Hydrolysis of monomer by 1H-NMR,in D2O,no signs of hydrolysis
